Measured values reported in patent US8013190B2, “Chemical composition with borane clusters for use as an HIV protease inhibitor” (Vysoka Skola Chemicko-Technologicka V Praze, priority 2004, dated 2011).
Like-named read-outs stand apart in the source and are kept apart here.

Tests used:
wild type HIV-1 protease = biological target: T1, wild type HIV-1 protease (Human immunodeficiency virus type 1 group M subtype B, UniProt P12497); assay: Inhibition of pure recombinant HIV protease with chromogenic peptide substrate (spectrophotometric); format: biochemical
T1 construct: using pure recombinant HIV protease and chromogenic peptide substrate
Method: (§1) Initially, known and novel compounds were tested as to their ability to inhibit specific activitity of HIV protease in vitro using pure recombinant HIV protease and chromogenic peptide substrate derived from amino acid sequence of one of the sites of cleavage of viral polyprotein. Testing was performed using the method published by one of the co-inventors of this invention (Konvalinka, J., Litera, J., Weber, J., Vondrásek, J., Hradilek, M., Soucek, M., Pichová, I., Majer, P., Strop, P., Sedlácek, J., Heuser, A. -M., Kottler, H. and Kraeusslich, H. -G. (1997). Eur. J. Biochem. 250, 559-566). […] The reaction course is observed spectrophotometrically as decrease of the absorbance at 305 nm.
The mechanism of action of tested compounds (inhibition type) were determined from dependence of initial reaction rate on substrate concentration at different inhibitor concentrations (Lineweaver-Burke plot). Dependence of initial enzyme reaction rate on substrate concentration is measured at various inhibitor concentrations (here 0 and 15 μM). The measurements were performed at pH 4.7, 37° C. in 0.1 M acetate buffer containing 0.3M NaCl. y axis: reciprocal value of initial enzyme reaction rate, x axis: reciprocal value of substrate concentration (mol/dm^3).

[1] = system: HIV proviral clone NL 4-3; assay: HIV infectivity inhibition in tissue cultures transfected with proviral clone NL4-3, titration on TZM reporter cells; format: cell-based; settings: for effect on virus infectivity: 293 T cells transfected by NL 4-3, FIG. 5
Method: The antiviral activity of compounds GB-8, GB-12 and GB-16 in tissue cultures was analyzed using two variations of a published procedure (Benyoucef S, Hober D, Shen L, Ajana F, Gerard Y, Bocket-Mouton L, Mouton Y, Wattre P. (1996) Microbiol Immunol. 40(5), 381-8). The production of infectious HIV particles and influences of HIV protease inhibitors on the infectivity was directly determined by these assays.
For testing of compounds GB-8, GB-12 and GB-16, HeLa cells were transfected by DNA encoding pNL-43 strain of HIV virus that contained beta-galactosidase gene in the site of viral nef gene. All transfections were performed in duplicate. Medium was replaced the next day following the transfection, and protease inhibitors dissolved in DMSO were added into fresh medium. The control was incubated in the same DMSO concentration as tested cells. The supernatant of transfected cells was used in next round for reporter cells infection. Infectivity was quantified by enzyme beta-galactosidase activity in infected cells and the infected cells were visualised using chromogenic beta-galactosidase substrate (X-gal). Viral proteins of newly created virions were separated by SDS PAGE and immunochemically visualised using antibodies against HIV capsid protein (Western blot).
In paralel experiments, HIV was produced in 293 T cells transfected by proviral clone NL 4-3. All transfections were performed in duplicate. Medium was replaced the next day following the transfection, and protease inhibitors dissolved in DMSO were added into fresh medium. The control was incubated in the same DMSO concentration as tested cells. Viral infectivity was quantified by titration of the cell supernatant by TZM cell (reporter cells bearing in their genome LTR promotor from HIV bound with beta-galactosidase gene, activated by Tat protein produced by the virus). After two days following the infection the reporter cells were lysed and fixed by methanol/acetone mixture. Beta-galactosidase activity of infected cells was visualised by blue color after chromogenic substrate X-gal addition.

cathepsin D = cathepsin D (Homo sapiens, UniProt P07339); assay: Inhibition of recombinant protease, chromogenic substrate; format: biochemical
Method: as §1, with “nm. IC50 values of tested compounds were calculated from experimental data, as taught in (Majer, P., Urban, J., Gregorová, E., Konvalinka, J., Novek, P., Stehlíková, J., Andreánsky, M., Sedlácek, J. and Strop, P. (1993) Arch.Biochem.Biophys. 304, 1-8) and are shown in Table 1.” for “nm.”
(§2) Inhibition testing of GB-16 was performed also for wild type HIV-2 protease, mutant HIV-1 PR 3/1 and cathepsin D. Results are shown in Table 2.

mutant HIV-1 PR 3/1 = assay: as above; format: biochemical
Method: as §1, with “nm. IC50 values of tested compounds were calculated from experimental data, as taught in (Majer, P., Urban, J., Gregorová, E., Konvalinka, J., Novek, P., Stehlíková, J., Andreánsky, M., Sedlácek, J. and Strop, P. (1993) Arch.Biochem.Biophys. 304, 1-8) and are shown in Table 1.” for “nm.”
as §2

wild-type HIV-2 PR = biological target: T2, wild-type HIV-2 PR (Human immunodeficiency virus type 2 subtype A, UniProt P04584); assay: as above; format: biochemical
T2 construct: performed also for wild type HIV-2 protease, mutant HIV-1 PR 3/1 and cathepsin D
Method: as §1, with “nm. IC50 values of tested compounds were calculated from experimental data, as taught in (Majer, P., Urban, J., Gregorová, E., Konvalinka, J., Novek, P., Stehlíková, J., Andreánsky, M., Sedlácek, J. and Strop, P. (1993) Arch.Biochem.Biophys. 304, 1-8) and are shown in Table 1.” for “nm.”
as §2

[2] = biological target: T3, HIV PR 15 (M46I, A71V, V82T, I84V) (Human immunodeficiency virus type 1 group M subtype B, UniProt P12497, A559V/I572V/M534I/V570T); format: biochemical, HIV-1; settings: read-out: Inhibition constants Ki
T3 construct: using pure recombinant HIV protease and chromogenic peptide substrate
Method: as §1

[3] = biological target: T4, HIV PR 5/1 (L10I, I15V, E35D, N37S, R41K, I62V, L63P, A71V, G73S, L90M) (Human immunodeficiency virus type 1 group M subtype B, UniProt P12497, A559V/E523D/G561S/I503V/I550V/L498I/L551P/L578M/N525S/R529K); format: biochemical, HIV-1; settings: read-out: Inhibition constants Ki
T4 construct: using pure recombinant HIV protease and chromogenic peptide substrate
Method: as §1

[4] = biological target: T5, HIV PR K4 (L10I, L24I, L33F, M46L, I54V, L63P, A71V, V82A, I84V) (Human immunodeficiency virus type 1 group M subtype B, UniProt P12497, A559V/I542V/I572V/L498I/L512I/L521F/L551P/M534L/V570A); format: biochemical, HIV-1; settings: read-out: Inhibition constants Ki
T5 construct: using pure recombinant HIV protease and chromogenic peptide substrate
Method: as §1

virus strain NL4-3 = assay: HIV infectivity inhibition in PM1 cell cultures infected by NL4-3, titration on TZM-cells; format: cell-based; settings: 6,6 to 60 μM, 40 h
Method: For testing of compound GB-48, PM1 cell cultures infected by virus strain NL4-3 were split 2 days post infection 1 to 10 with fresh, uninfected cells. To remove unbound virus cells were washed with pre-warmed medium four hours post infection. Cells were subsequently incubated for 40 h with a GB-48 dissolved in DMSO at a final concentration from 0.74 to 60 μM. Control cells were incubated with the same amount of DMSO as the GB-48 treated cells. To harvest the free virus cells were centrifuged at 1500 rpm for 5 min and 10 μl of the supernatants were used for titration. Changes in viral infectivity were analysed by titration of the supernatants on TZM-cells as described above. Two days post infection TZM-cells were lysed and fixed with methanol/aceton. The beta-galactosidase activity of infected cells was visualised by blue stain upon X-Gal addition. All titrations were done in duplicate assays. The viral titer and standard deviation was calculated from three independent titrations. Example of the activity testing is given on FIG. 6. […] At these concentrations drops in viral titer of at least 3 orders of magnitude in virus infectivity were observed.

[5] = wild type HIV-1 protease, pH 4.7, Table 1 values in μM
[6] = wild type HIV-1 protease, pH 4.7, Table 1 values in nM
[7] = wild type, Table 3, read-out: Inhibition constants Ki

Sequence of cathepsin D (P07339 65-412, species assumed): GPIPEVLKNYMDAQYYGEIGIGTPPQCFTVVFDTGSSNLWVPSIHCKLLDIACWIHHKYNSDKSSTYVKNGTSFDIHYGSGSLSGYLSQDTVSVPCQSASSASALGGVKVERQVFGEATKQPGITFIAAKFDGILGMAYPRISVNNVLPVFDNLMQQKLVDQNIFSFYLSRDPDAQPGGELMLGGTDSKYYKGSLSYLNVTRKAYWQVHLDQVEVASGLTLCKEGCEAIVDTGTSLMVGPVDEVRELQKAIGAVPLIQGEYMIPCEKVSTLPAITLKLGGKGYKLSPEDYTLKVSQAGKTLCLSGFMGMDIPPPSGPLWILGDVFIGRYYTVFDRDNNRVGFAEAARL
T2 sequence (P04584 514-612 limits assumed): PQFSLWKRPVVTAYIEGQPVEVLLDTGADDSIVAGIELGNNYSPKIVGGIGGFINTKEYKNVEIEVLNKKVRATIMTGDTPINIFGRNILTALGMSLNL

[8,8′-μ-O-(1,2-C2B9H10)(1′,2′-C2B9H10)-3,3′-Co]Na [GB-12]
IC50 (wild type HIV-1 protease; [5]): 5.2 µM | effect on virus infectivity [1]: block the virus infectivity

[8-(O-P(═O)(OH)2)-(1,2-C2B9H10)(1′,2′-C2B9H11)-3,3′-Co]Na.nH2O [GB-16]
mechanism of action (inhibition type), Lineweaver-Burke plot (wild type HIV-1 protease; inhibitor 0 and 15 μM, pH 4.7, 37° C.): competitive inhibitor | IC50 (wild type HIV-1 protease; [5]): 6.2 µM | IC50 (wild type HIV-1 protease; wild-type HIV-1 PR, Table 2): 6.2 µM | Ki (wild type HIV-1 protease; wild-type HIV-1 PR, Table 2, read-out: Ki): 16.3 µM | IC50 (cathepsin D): 32.9 µM | Ki (cathepsin D): 17.2 µM | IC50 (mutant HIV-1 PR 3/1): 13.4 µM | Ki (mutant HIV-1 PR 3/1): 3.6 µM | IC50 (wild-type HIV-2 PR): 15.4 µM | Ki (wild-type HIV-2 PR): 7.4 µM | HIV infectivity, % of the initial value ([1]; 10 μM solution, 293 T cells / TZM reporter cells): ~27% | effect on virus infectivity [1]: block the virus infectivity

[8-(OH-1,2-C2B9H10)(1′,2′-C2B9H11)-3,3′-Co]Na.nH2O [GB-8]
IC50 (wild type HIV-1 protease; [5]): 13.5 µM | effect on virus infectivity [1]: block the virus infectivity

[(1,2-C2B9H10)-3,3′-Co(1′,2′-C2B9H11)-8-(OCH2CH2)2NH(CH2CH2CH2CH3)-CH2CH2OCH2CH2-8″-O-(1″,2″-C2B9H10)-3″,3′″-Co(1′″,2′″-C2B9H11)]Na [GB-48]
IC50 (wild type HIV-1 protease; [6]): 0.1 µM | Ki (wild type HIV-1 protease; [7]): 0.0022 µM | Ki [2]: 0.009 µM | Ki [3]: 0.0046 µM | Ki [4]: 0.024 µM | drops in viral titer (virus strain NL4-3): at least 3 orders of magnitude | effect on virus infectivity (virus strain NL4-3): strongly inhibited virus infectivity

[(1,2-C2B9H10)-3,3′-Co(1′,2′-C2B9H11)-8-(OCH2CH2)2NH-CH2CH2OCH2CH2-8″-O-(1″,2″-C2B9H10)-3″,3′″-Co(1′″,2′″-C2B9H11)]Na [GB-80]
IC50 (wild type HIV-1 protease; [6]): 0.14 µM | Ki (wild type HIV-1 protease; [7]): 0.0049 µM | Ki [2]: 0.022 µM | Ki [3]: 0.04 µM | Ki [4]: 0.013 µM

[(8-(C6F5O-(CH2)5O)-1,2-C2B9H10)(1′,2′-C2B9H11)-3,3′-Co]Na [GB-54]
IC50 (wild type HIV-1 protease; [6]): 0.2 µM

[(8-(C6F5O-(CH2-CH2O)2)-1,2-C2B9H10)(1′,2′-C2B9H11)-3,3′-Co]Na [GB-45]
IC50 (wild type HIV-1 protease; [6]): 0.16 µM

[(8-(C6H4(CO)(CO)N-(CH2-CH2O)2)-1,2-C2B9H10)(1′,2′-C2B9H11)-3,3′-Co]Na [GB-64]
IC50 (wild type HIV-1 protease; [6]): 0.84 µM

[(8-(C6H4(CO)(SO2)N-(CH2-CH2O)2)-1,2-C2B9H10)(1′,2′-C2B9H11)-3,3′-Co]Na [GB-63]
IC50 (wild type HIV-1 protease; [6]): 0.13 µM

[(8-(C6H5)-(CH2-CH2O)2)-1,2-C2B9H10)(1′,2′-C2B9H11)-3,3′-Co]Na [GB-40]
IC50 (wild type HIV-1 protease; [5]): 1.2 µM

[(8-(NH2(C6H5CH2)-(CH2-CH2O)2)-1,2-C2B9H10)(1′,2′-C2B9H11)-3,3′-Co] [GB-103]
IC50 (wild type HIV-1 protease; [5]): 1.4 µM

[(8-(NH2(CH2CH2CH2CH3)-(CH2-CH2O)2)-1,2-C2B9H10)(1′,2′-C2B9H11)-3,3′-Co] [GB-102]
IC50 (wild type HIV-1 protease; [5]): 2.2 µM

[(8-(NH3-(CH2-CH2O)2)-1,2-C2B9H10)(1′,2′-C2B9H11)-3,3′-Co] [GB-69]
IC50 (wild type HIV-1 protease; [5]): 2.2 µM

[(8-(calix[4]arene-O-(CH2-CH2O)2)-1,2-C2B9H10)(1′,2′-C2B9H11)-3,3′-Co]Na [GB-72]
IC50 (wild type HIV-1 protease; [6]): 0.21 µM

[(8-Cl-1,2-C2B9H10)(8′-Cl-1′,2′-C2B9H10)-3,3′-Co]Na [GB-96]
IC50 (wild type HIV-1 protease; [5]): 1.08 µM

[(8-HO-(CH2-CH2O)2-1,2-C2B9H10)(1′,2′-C2B9H11)-3,3′-Co]Na [GB-1]
IC50 (wild type HIV-1 protease; [5]): 6.1 µM

[(8-I-1,2-C2B9H10)(8′-I-1′,2′-C2B9H10)-3,3′-Co]Na [GB-97]
IC50 (wild type HIV-1 protease; [6]): 0.87 µM

[((1,2-C2B9H10)-3,3′-Co(1′,2′-C2B9H11)-8-(OCH2CH2)2O)3-NH]Na2 [GB-79]
IC50 (wild type HIV-1 protease; [6]): 0.13 µM

[(C2B9H10)2-3-Fe]Na.4H2O [GB-23]
IC50 (wild type HIV-1 protease; [6]): 0.55 µM
